What was measured:
[1] = tested on: total testosterone; assay: Example 3 study in hypogonadal men: morning serum total testosterone (ITT); format: in vivo, human
Description: (§1) A randomized, double-blind, placebo controlled, parallel-group study of once-daily doses of fispemifene (100, 200, and 300 mg/day) given for 4 weeks was conducted in a population of hypogonadal men. Subjects were required to meet all of the following inclusion criteria at screening and prior to randomization to be eligible for the study:
(§2) There were 77 subjects total. The number of subjects randomized to the 100 mg fispemifene, 200 mg fispemifene, 300 mg fispemifene, and placebo arms were 21, 21, 19, and 16, respectively.
(§3) Subjects were randomly assigned to one of four treatment groups in a 1:1:1:1 ratio: • Treatment A (100 mg): fispemifene 100 mg+placebo+placebo; • Treatment B (200 mg): fispemifene 100 mg+fispemifene 100 mg+placebo; • Treatment C (300 mg): fispemifene 100 mg+fispemifene 100 mg+fispemifene 100 mg; and • Treatment D (Placebo): placebo+placebo+placebo.
(§4) Subjects took one dose (three capsules) of study medication once a day at home for 4 weeks. Capsules were to be taken in the morning immediately after breakfast, with the exception of the morning of the Week 4 visit. Capsules were not to be taken on the morning of the Week 4 visit because trough plasma levels of fispemifene were determined by a blood sample taken at this visit. Each subject was randomly assigned to treatment with one of the 3 different dose regimens of fispemifene or placebo vehicle. Each subject received a 4 week supply of study drug.
(§5) Blood samples were taken from the subjects within 1 week prior to dosing with study drug to establish baseline values; after 2 and 4 weeks of randomization; and 2 weeks after the last dose of study drug. Serum was prepared from those samples and used to determine the mean % change from baseline in total testosterone, free testosterone, SHBG (sex hormone-binding globulin), DHT (dihydrotestosterone), E2 (estradiol), LH (luteinizing hormone), FSH (follicle stimulating hormone), and inhibin B.
The primary efficacy endpoint was defined as percent change from baseline in morning total testosterone levels at Week 4. The intent-to-treat (“ITT”) population was the primary population for analysis. The secondary efficacy endpoints included:
2. Percent change from baseline in total testosterone levels at Weeks 2 and 6; and […]

[2] = tested on: inhibin B; assay: Example 3 study in hypogonadal men: serum inhibin B (ITT); format: in vivo, human; conditions: for Inhibin B % Change from Baseline to Week 2, Max / Inhibin B % Change from Baseline to Week 2, Mean ± SD / Inhibin B % Change from Baseline to Week 2, Median / Inhibin B % Change from Baseline to Week 2, Min: Week 2, (Week minus Baseline) divided by Baseline; for Inhibin B % Change from Baseline to Week 2, Max / Inhibin B % Change from Baseline to Week 2, Mean ± SD / Inhibin B % Change from Baseline to Week 2, Median / Inhibin B % Change from Baseline to Week 2, Min / Inhibin B % Change from Baseline to Week 4, Max / Inhibin B % Change from Baseline to Week 4, Mean ± SD / Inhibin B % Change from Baseline to Week 4, Median / Inhibin B % Change from Baseline to Week 4, Min / Inhibin B % Change from Baseline to Week 6, Max / Inhibin B % Change from Baseline to Week 6, Mean ± SD / Inhibin B % Change from Baseline to Week 6, Median / Inhibin B % Change from Baseline to Week 6, Min: LOCF; for Inhibin B % Change from Baseline to Week 4, Max / Inhibin B % Change from Baseline to Week 4, Mean ± SD / Inhibin B % Change from Baseline to Week 4, Median / Inhibin B % Change from Baseline to Week 4, Min: Week 4, (Week minus Baseline) divided by Baseline; for Inhibin B % Change from Baseline to Week 6, Max / Inhibin B % Change from Baseline to Week 6, Mean ± SD / Inhibin B % Change from Baseline to Week 6, Median / Inhibin B % Change from Baseline to Week 6, Min: Week 6, (Week minus Baseline) divided by Baseline
Description: as §1, §2, §3, §4, §5
3. Percent change from baseline in SHBG, DHT, E2, LH, FSH, inhibin B, and testosterone/E2 ratio at Weeks 2, 4, and 6.

[3] = 300 mg/day, Week 6 (2 weeks after discontinuation)
[4] = 300 mg/day, to Week 6 (2 weeks after discontinuation)

OCCOCCOc1ccc(/C(=C(/CCCl)c2ccccc2)c2ccccc2)cc1 [Fispemifene, (Z)-2-{2-[4-(4-Chloro-1,2-diphenylbut-1-enyl)phenoxy]ethoxy}ethanol]
Total Testosterone, Max [1, 3]: 423.0 ng/dL | Total Testosterone, Mean ± SD [1, 3]: 279.2 ± 102.84 ng/dL | Total Testosterone, Median [1, 3]: 293.0 ng/dL | Total Testosterone, Min [1, 3]: 16.0 ng/dL | Total Testosterone, % Change from Baseline, Max ([1]; 300 mg/day, to Week 2): 101% | Total Testosterone, % Change from Baseline, Median ([1]; 300 mg/day, to Week 2): 65% | Total Testosterone, % Change from Baseline, Max ([1]; 300 mg/day, to Week 4): 181% | Total Testosterone, % Change from Baseline, Median ([1]; 300 mg/day, to Week 4): 80% | Total Testosterone, % Change from Baseline, Max [1, 4]: 77% | Total Testosterone, % Change from Baseline, Median [1, 4]: 14% | effect on serum total testosterone concentration ([1]; hypogonadal men, within 14 days from the start of treatment, maintained during treatment): clinically and statistically significant and dose dependent increase to, but not beyond, the normal range | Inhibin B % Change from Baseline to Week 2, Max ([2]; 100 mg): 1.64 | Inhibin B % Change from Baseline to Week 2, Mean ± SD ([2]; 100 mg): 0.24 ± 0.493 | Inhibin B % Change from Baseline to Week 2, Median ([2]; 100 mg): 0.17 | Inhibin B % Change from Baseline to Week 2, Min ([2]; 100 mg): −0.44 | Inhibin B % Change from Baseline to Week 4, Max ([2]; 100 mg): 1.86 | Inhibin B % Change from Baseline to Week 4, Mean ± SD ([2]; 100 mg): 0.30 ± 0.631 | Inhibin B % Change from Baseline to Week 4, Median ([2]; 100 mg): 0.09 | Inhibin B % Change from Baseline to Week 4, Min ([2]; 100 mg): −0.61 | Inhibin B % Change from Baseline to Week 6, Max ([2]; 100 mg): 1.40 | Inhibin B % Change from Baseline to Week 6, Mean ± SD ([2]; 100 mg): 0.41 ± 0.572 | Inhibin B % Change from Baseline to Week 6, Median ([2]; 100 mg): 0.29 | Inhibin B % Change from Baseline to Week 6, Min ([2]; 100 mg): −0.41 | Inhibin B Actual Value at Baseline (Visit 2), Max ([2]; 100 mg): 191.0 pg/mL | Inhibin B Actual Value at Baseline (Visit 2), Mean ± SD ([2]; 100 mg): 95.1 ± 46.32 pg/mL | Inhibin B Actual Value at Baseline (Visit 2), Median ([2]; 100 mg): 89.0 pg/mL | Inhibin B Actual Value at Baseline (Visit 2), Min ([2]; 100 mg): 22.0 pg/mL | Inhibin B % Change from Baseline to Week 2, Max ([2]; 200 mg): 1.48 | Inhibin B % Change from Baseline to Week 2, Mean ± SD ([2]; 200 mg): 039 ± 0.534 | Inhibin B % Change from Baseline to Week 2, Median ([2]; 200 mg): 0.21 | Inhibin B % Change from Baseline to Week 2, Min ([2]; 200 mg): −0.22 | Inhibin B % Change from Baseline to Week 4, Max ([2]; 200 mg): 3.40 | Inhibin B % Change from Baseline to Week 4, Mean ± SD ([2]; 200 mg): 0.42 ± 0.862 | Inhibin B % Change from Baseline to Week 4, Median ([2]; 200 mg): 0.12 | Inhibin B % Change from Baseline to Week 4, Min ([2]; 200 mg): −0.44 | Inhibin B % Change from Baseline to Week 6, Max ([2]; 200 mg): 2.00 | Inhibin B % Change from Baseline to Week 6, Mean ± SD ([2]; 200 mg): 0.40 ± 0.628 | Inhibin B % Change from Baseline to Week 6, Median ([2]; 200 mg): 0.22 | Inhibin B % Change from Baseline to Week 6, Min ([2]; 200 mg): −0.34 | Inhibin B Actual Value at Baseline (Visit 2), Max ([2]; 200 mg): 220.0 pg/mL | Inhibin B Actual Value at Baseline (Visit 2), Mean ± SD ([2]; 200 mg): 105.6 ± 59.43 pg/mL | Inhibin B Actual Value at Baseline (Visit 2), Median ([2]; 200 mg): 95.0 pg/mL | Inhibin B Actual Value at Baseline (Visit 2), Min ([2]; 200 mg): 16.0 pg/mL | Inhibin B % Change from Baseline to Week 2, Max ([2]; 300 mg): 0.97 | Inhibin B % Change from Baseline to Week 2, Mean ± SD ([2]; 300 mg): 0.12 ± 0.400 | Inhibin B % Change from Baseline to Week 2, Median ([2]; 300 mg): 0.05 | Inhibin B % Change from Baseline to Week 2, Min ([2]; 300 mg): −0.42 | Inhibin B % Change from Baseline to Week 4, Max ([2]; 300 mg): 0.878 | Inhibin B % Change from Baseline to Week 4, Mean ± SD ([2]; 300 mg): 0.016 ± 0.2904 | Inhibin B % Change from Baseline to Week 4, Median ([2]; 300 mg): −0.012 | Inhibin B % Change from Baseline to Week 4, Min ([2]; 300 mg): −0.459 | Inhibin B % Change from Baseline to Week 6, Max ([2]; 300 mg): 0.645 | Inhibin B % Change from Baseline to Week 6, Mean ± SD ([2]; 300 mg): 0.004 ± 0.3349 | Inhibin B % Change from Baseline to Week 6, Median ([2]; 300 mg): −0.057 | Inhibin B % Change from Baseline to Week 6, Min ([2]; 300 mg): −0.493 | Inhibin B Actual Value at Baseline (Visit 2), Max ([2]; 300 mg): 334.0 pg/mL | Inhibin B Actual Value at Baseline (Visit 2), Mean ± SD ([2]; 300 mg): 127.3 ± 75.76 pg/mL | Inhibin B Actual Value at Baseline (Visit 2), Median ([2]; 300 mg): 128.0 pg/mL | Inhibin B Actual Value at Baseline (Visit 2), Min ([2]; 300 mg): 16.0 pg/mL
